Results: patent publication US20180135134A1, “TARGETED SELECTION OF PATIENTS FOR TREATMENT WITH CORTISTATIN DERIVATIVES” (President and Fellows of Harvard College, priority 2015, published 2018)

Tests used:
OCI-LY1 = assay: Cellular proliferation assay (CellTiter-Glo); details: Homo sapiens
Description: (§1) All suspension cells were plated (96-well) in triplicate at 5,000-30,000 cells per well for testing (n=3). Viable cell number was estimated after 3, 7 and 10 days by counting viable cells from one vehicle well, generating a cell dilution series, transferring 20 ml per well in duplicate to a 384-well plate, and performing a linear regression to CellTiter-Glo (Promega) response (SPECTRAmax M3, Molecular Devices). Cells from all wells were also fourfold diluted in media and transferred in duplicate for CellTiter-Glo measurement. On days 3 and 7, an equal volume for all wells was split-back with fresh media and compound, such that the resulting cell density for the vehicle well matched the initial seeding density. For days 7 and 10, estimated cell number represents the split-adjusted theoretical cell number. […] For growth assays with inhibitors, n=3 for each concentration with two independent experiments.

HL-60 = assay: Cellular proliferation assay (CellTiter-Glo); details: Homo sapiens
Description: as §1

MOLM-14 = assay: Cellular proliferation assay (CellTiter-Glo); details: Homo sapiens
Description: as §1

SK-ES-1 = assay: Soft agar growth assay (Alamar Blue); details: EWS-FLI1, 100 nM cortistatin A
Description: (§2) For the 62 cell lines 96 well suspension cell culture plates were prepared. 100 μL of the soft agar bottom layer (0.6% final concentration in complete medium) was poured and left to solidify. 50 μL of the soft agar top layer (0.4% final concentration) containing the corresponding cells and cell number were then added on top, solidified and incubated at 37° C., 10% CO2. After the soft agar had solidified, the test items were added at indicated final concentrations into the inner wells of the plate. Subsequently, the assay was incubated in cell culture incubators for 8 to 14 days. Finally, the assay was developed using Alamar Blue and upon 1-5 h of incubation at 37° C. fluorescence intensity was determined (excitation: 560 nm; emission: 590 nm). As low control, cells were treated with 1E-05M Staurosporine (6fold values). As high control, cells were treated with 0.1% DMSO (solvent control, 6 fold values).
(§3) Raw data were converted into percent soft agar growth relative to high controls (solvent 0.1% DMSO) and low controls (1E-05M Staurosporine), which were set to 100% and 0%, respectively.

MOLM-16 = assay: Cellular proliferation assay (CellTiter-Glo); details: Homo sapiens
Description: as §1

Caki-2 = assay: Soft agar growth assay (Alamar Blue); details: clear cell renal cell carcinoma, Loss of function VHL mutation (VHL negative), 100 nM cortistatin A
Description: as §2, §3

CDK8/Cyclin C = target: T1, CDK8/Cyclin C (Homo sapiens, UniProt P49336); assay: In vitro radiometric protein kinase assay (PanQinase); type: biochemical; details: FIG. 8
T1 construct: purchased ProQinase GmbH
T1 sequence (P49336 whole entry): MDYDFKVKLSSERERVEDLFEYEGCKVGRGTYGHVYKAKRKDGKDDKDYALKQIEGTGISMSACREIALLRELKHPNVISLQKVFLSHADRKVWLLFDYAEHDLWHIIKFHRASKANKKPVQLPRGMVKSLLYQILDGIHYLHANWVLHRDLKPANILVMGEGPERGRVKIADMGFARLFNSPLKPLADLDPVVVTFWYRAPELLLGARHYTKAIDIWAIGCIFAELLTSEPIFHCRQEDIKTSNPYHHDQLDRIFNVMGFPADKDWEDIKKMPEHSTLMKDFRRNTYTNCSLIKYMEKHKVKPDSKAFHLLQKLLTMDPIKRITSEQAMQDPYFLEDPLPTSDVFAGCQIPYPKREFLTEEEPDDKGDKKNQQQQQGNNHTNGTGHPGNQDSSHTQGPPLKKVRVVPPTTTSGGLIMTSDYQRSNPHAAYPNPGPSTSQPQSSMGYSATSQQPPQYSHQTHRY
T1 sequence (P24863 whole entry partner): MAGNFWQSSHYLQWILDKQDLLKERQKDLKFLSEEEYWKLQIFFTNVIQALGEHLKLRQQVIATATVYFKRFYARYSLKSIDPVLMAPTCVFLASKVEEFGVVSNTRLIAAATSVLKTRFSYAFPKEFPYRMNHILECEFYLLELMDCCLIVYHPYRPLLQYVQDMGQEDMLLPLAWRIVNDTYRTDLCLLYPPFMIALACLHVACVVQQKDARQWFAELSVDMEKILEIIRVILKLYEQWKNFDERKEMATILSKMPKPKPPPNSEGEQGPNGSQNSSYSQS
Description: A radiometric protein kinase assay was used (PanQinase activity assay; performed by ProQinase GmbH) as described (Hutterer, C. et al. Antimicrob. Agents Chemother. 59, 2062-2071 (2015)).

CDK8/19 = details: 1,000 nM cortistatin A; FIG. 7B
Description: Native kinome profiling was performed with MOLM-14 cell lysate according to the KiNativ Method by ActivX Biosciences. For each peptide quantified, the change in mass spectrometry signal for the treated samples relative to the signal for the control samples was expressed as percentage inhibition.

[1] = tested on: megakaryocytic and erythroleukemia cell lines; assay: Comparison of sensitivity of megakaryocytic and erythroleukemia cell lines; details: K562 and HEL compared to MEG-01 and SET-2 (BCR-Abl or JAK2V617F)
U87MG = assay: Soft agar growth assay (Alamar Blue); details: Glioma, Inactivating mutations in ETV1, FLL1 and SMC3, 100 nM cortistatin A
Description: as §2, §3

GRANTA 519 = assay: Cellular proliferation assay (CellTiter-Glo); details: Homo sapiens
Description: (§4) All suspension cells were plated (96-well) in triplicate at 5,000-30,000 cells per well for testing (n=3). Viable cell number was estimated after 3, 7 and 10 days by counting viable cells from one vehicle well, generating a cell dilution series, transferring 20 ml per well in duplicate to a 384-well plate, and performing a linear regression to CellTiter-Glo (Promega) response (SPECTRAmax M3, Molecular Devices). Cells from all wells were also fourfold diluted in media and transferred in duplicate for CellTiter-Glo measurement. On days 3 and 7, an equal volume for all wells was split-back with fresh media and compound, such that the resulting cell density for the vehicle well matched the initial seeding density. For days 7 and 10, estimated cell number represents the split-adjusted theoretical cell number. HCT116 were plated (96-well) in triplicate at 250 cells per well. Cells were incubated in the presence of vehicle, 1 μM paclitaxel, or compound. On day 7, CellTiter-Blue (Promega) response was measured and values were normalized to vehicle (100% growth) and paclitaxel (0% growth). For growth assays with inhibitors, n=3 for each concentration with two independent experiments.

JeKo-1 = assay: Cellular proliferation assay (CellTiter-Glo); details: Homo sapiens
Description: as §4

RUNX1 = RUNX1 recruitment to genomic loci; type: cell-based, human; details: FIG. 11
NB4 = assay: Cellular proliferation assay (CellTiter-Glo); details: Homo sapiens, NB-4
Description: as §4

SET-2 = assay: Synergy assay with ruxolitinib (Chou-Talalay), SET-2; type: cell-based, human; details: combination of cortistatin A with JAK1/2 inhibitor ruxolitinib, FIG. 5
Description: SET-2 and UKE-1 cells were co-treated with constant ratios of ruxolitinib to CA, 1 to 1 or 10 to 1, in a 96-well growth assay format with a range of 2-fold dose dilutions of compounds. SET-2 and UKE-1 cells were also treated with ruxolitinib alone or CA alone in a 2-fold dilution series. The Chou-Talalay combination index values at 50% growth inhibition (Fa=0.5) were determined using CalcuSyn software (see Chou, T. C. Cancer Res. 2010 Jan. 15; 70(2):440-6) (FIG. 5).

MM1.S = assay: Cellular proliferation assay (CellTiter-Glo); details: Homo sapiens
Description: as §4

MKN-45 = assay: Soft agar growth assay (Alamar Blue); details: Gastric cancer, MET amplification, 100 nM cortistatin A
Description: as §2, §3

HEL = assay: Cellular proliferation assay (CellTiter-Glo); details: Homo sapiens
Description: as §1

SK-N-MC = assay: Soft agar growth assay (Alamar Blue); details: Neuroblastoma, EWS-FLI1, 100 nM cortistatin A
Description: as §2, §3

MEG-01 = assay: Cellular proliferation assay (CellTiter-Glo); details: Homo sapiens
Description: as §1

CN(C)[C@H]1C[C@@]23CC[C@@]4(O2)C(=CC[C@]2(C)[C@@H](c5ccc6ccncc6c5)CC[C@H]24)C=C3[C@@H](O)[C@@H]1O [Cortistatin A, cortistatin A]
GI50 (OCI-LY1): 37 nM | GI50 (HL-60): 7 nM | GI50 (MOLM-14; MOLM-14): 5 nM | GI50 (MOLM-14; MOLM-14, 240 h): 5 nM | % growth rel. to vehicle (SK-ES-1): 36% | GI50 (MOLM-16; MOLM16): < 1 nM | GI50 (MOLM-16; MOLM16, 240 h): ≤ 1 nM | % growth rel. to vehicle (Caki-2): 18% | inhibition of CDK8/Cyclin C kinase activity (CDK8/Cyclin C): potently inhibits CDK8/Cyclin C | kinase selectivity (native kinase % inhibition) (CDK8/19): selectively inhibits CDK8/19 | difference in sensitivity between megakaryocytic and erythroleukemia cell lines with the same mutations [1]: more than 100 fold | % growth rel. to vehicle (U87MG): 36% | GI50 (GRANTA 519): 400 nM | GI50 (JeKo-1): < 1 nM | RUNX1 recruitment to loci (RUNX1): RUNX1 was recruited to loci upregulated by CA treatment | GI50 (NB4): > 1000 nM | combination index (synergy) for inhibition of proliferation (SET-2): synergizes | GI50 (MM1.S): 5 nM | % growth rel. to vehicle (MKN-45): 27% | GI50 (HEL): > 1000 nM | GI50 (HEL; 240 h): > 1000 nM | % growth rel. to vehicle (SK-N-MC): 45% | GI50 (MEG-01; MEG-01): 9 nM | GI50 (MEG-01; MEG-01, 240 h): 9 nM
